Data taken from PubChem BioAssay (NCI).
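Grown in 96-well plates, cells were treated for 48 hours with each compound at five concentrations. Insufficient inhibition: endpoint recorded as highest concentration tested. GI50 is the concentration that inhibits growth by half. TGI: concentration producing complete growth inhibition.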

Tests used:
Test in all cases: inhibition of tumour cell growth, NCI panel, 48 h
[1] = tested on: LOX IMVI melanoma
[2] = tested on: SNB-75 CNS
[3] = tested on: M14 melanoma
[4] = tested on: TK-10 renal
[5] = tested on: MOLT-4 leukemia
[6] = tested on: HCC-2998 colon
[7] = tested on: HL-60(TB) leukemia
[8] = tested on: A498 renal
[9] = tested on: PC-3 prostate
[10] = tested on: SF-539 CNS

`C[C@H](O)C(=O)SC[C@H](NC(=O)CC[C@@H](N)C(=O)O)C(=O)NCC(=O)O` was tested, and the TGI [1] was > 100 µM, the TGI [2] was > 100 µM and the TGI [3] was > 100 µM. The TGI [4] was > 100 µM, the TGI [5] was > 100 µM and the TGI [6] was > 100 µM.

`COc1cc(NCc2ccc3n2-c2ccccc2OC3)cc(OC)c1OC` was tested, and the TGI [1] was 27.4 µM, the TGI [2] was 62.4 µM and the TGI [3] was > 100 µM. For the same compound, the TGI [4] was > 100 µM, the TGI [7] was 57.2 µM and the TGI [8] was 33.8 µM. For the same compound, the TGI [9] was 87.1 µM and the TGI [6] was 51.6 µM.

`CC(O)=NC(Cc1ccc2ccccc2c1)C(O)=NC(Cc1ccc(Cl)cc1)C(O)=NC(Cc1c[nH]c2ccccc12)C(O)=NC(CO)C(O)=NC(Cc1ccc(O)cc1)C(O)=NC(CCCN=C(N)N)C(O)=NC(CC(C)C)C(O)=NC(CCCN=C(N)N)C(=O)N1CCCC1C(O)=NC(C)C(=N)O` (stereo not given) was tested, and the TGI [2] was > 100 µM, the TGI [3] was > 100 µM and the TGI [10] was 99.7 µM. For the same compound, the TGI [4] was > 100 µM, the TGI [5] was > 100 µM and the TGI [7] was > 100 µM. For the same compound, the TGI [8] was > 100 µM, the TGI [9] was > 100 µM and the TGI [6] was > 100 µM.

`COc1ccc2c(c1)CC[C@@H]1[C@@H]2CC[C@]2(C)[C@@H](O)/C(=C/c3ccncc3)C[C@@H]12` was tested, and the TGI [2] was 39.8 µM, the TGI [3] was 30.4 µM and the TGI [4] was 34 µM. For the same compound, the TGI [5] was 26.4 µM, the TGI [7] was 39.2 µM and the TGI [8] was 38.3 µM. For the same compound, the TGI [9] was 25.5 µM and the TGI [6] was 23.6 µM.

With `CCOc1ccc2c(c1)NC(=O)C(C1OC(c3ccccc3)=CC1=O)S2` (stereo not given) the TGI [1] was 67 µM, the TGI [3] was > 100 µM and the TGI [10] was 45 µM. The TGI [4] was > 100 µM, the TGI [7] was > 100 µM and the TGI [8] was > 100 µM. The TGI [9] was 51.4 µM and the TGI [6] was 37.7 µM.

For `CCOC(=O)[C@H]1C[C@]23CN(C(=O)OC(C)(C)C)CC[C@H]2CCC2(SCCCS2)[C@@H]3N1C`, the TGI [1] was > 100 µM, the TGI [2] was > 100 µM and the TGI [3] was > 100 µM. The TGI [10] was > 100 µM, the TGI [4] was 81.2 µM and the TGI [5] was > 100 µM. For the same compound, the TGI [7] was 47.3 µM, the TGI [8] was > 100 µM and the TGI [9] was 89.9 µM. The TGI [6] was 65.4 µM.

Compound `Cc1cc(-c2nc3cc(F)ccc3s2)ccc1NC(=O)C(C)N` (stereo not given) has a TGI [1] of 10.1 µM, a TGI [2] of 10.6 µM and a TGI [3] of 9.74 µM. It also gave a TGI [10] of 14.2 µM, a TGI [4] of 2.93 µM and a TGI [5] of 8.42 µM. For the same compound, the TGI [7] was 1.34 µM, the TGI [8] was 7.41 µM and the TGI [9] was 8.71 µM. The TGI [6] was 3.57 µM.

`C[n+]1c(-c2ccc(/C=N\NC(=O)c3ccc(C(=O)N/N=C/c4ccc(-c5cn6ccsc6[n+]5C)cc4)cc3)cc2)cn2ccsc21` showed a TGI [2] of 46.7 µM, a TGI [3] of 44.9 µM and a TGI [10] of 56.1 µM. The TGI [4] was 40.3 µM, the TGI [5] was 54.1 µM and the TGI [7] was 43.8 µM. For the same compound, the TGI [8] was 33 µM, the TGI [9] was 41.1 µM and the TGI [6] was 58.4 µM.

For `COc1c2ccoc2c(S(=O)(=O)Nc2ccc(Cl)cc2)c2oc(C)cc(=O)c12`, the TGI [1] was > 100 µM, the TGI [2] was 76.4 µM and the TGI [10] was > 93.9 µM. For the same compound, the TGI [5] was > 100 µM, the TGI [7] was > 31.6 µM and the TGI [8] was > 100 µM. The TGI [6] was > 100 µM.

For `CCOc1cc(NC(C)=O)ccc1C(=O)NN1C(=O)CSC1c1ccc(O)c(OC)c1` (stereo not given), the TGI [1] was > 100 µM, the TGI [2] was > 100 µM and the TGI [3] was > 100 µM. The TGI [10] was > 100 µM, the TGI [4] was 39.3 µM and the TGI [5] was > 100 µM. The TGI [7] was > 100 µM, the TGI [8] was > 100 µM and the TGI [9] was > 100 µM. The TGI [6] was > 100 µM.

`O=C1N[C@@H]2c3c(Br)sc(Br)c3C(=O)[C@@H]2N1` gave a TGI [1] of 4.28 µM, a TGI [2] of 18.4 µM and a TGI [3] of 16.5 µM. The TGI [10] was 8.88 µM, the TGI [4] was 6.09 µM and the TGI [5] was 9.08 µM. It also gave a TGI [7] of 5.36 µM, a TGI [8] of 34 µM and a TGI [9] of 10.4 µM. It also gave a TGI [6] of 3.42 µM.

For `CN(C)CCC(C(=O)C(C)(C)C)c1ccccn1` (stereo not given), the TGI [1] was > 100 µM, the TGI [2] was > 100 µM and the TGI [3] was > 100 µM. The TGI [4] was > 100 µM, the TGI [7] was > 100 µM and the TGI [8] was > 100 µM. For the same compound, the TGI [9] was > 100 µM and the TGI [6] was > 100 µM.

For `O=C(Nc1ccc(F)cc1)c1cc2ccc(O)cc2oc1=Nc1ccccc1F`, the TGI [1] was 49.6 µM, the TGI [10] was > 100 µM and the TGI [5] was > 100 µM. The TGI [7] was 69.5 µM, the TGI [8] was > 100 µM and the TGI [9] was > 100 µM. The TGI [6] was > 100 µM.

`C=C1C(=O)OC2/C=C(\C)CC(O)/C=C(/CO)CC(OC(=O)/C(C)=C/C)C12` (stereo not given) showed a TGI [2] of 417 µM, a TGI [10] of 115 µM and a TGI [5] of 43.8 µM. For the same compound, the TGI [7] was 34.9 µM, the TGI [8] was 58.4 µM and the TGI [6] was 134 µM.

Work on `CCCCOc1ccc(S(=O)(=O)/N=C(\NN)Nc2ccc(Cl)cc2)cc1` yielded a TGI [1] of 35.6 µM, a TGI [2] of 27 µM and a TGI [3] of 56.9 µM. For the same compound, the TGI [10] was 36.7 µM, the TGI [4] was > 100 µM and the TGI [5] was > 100 µM. For the same compound, the TGI [7] was > 100 µM, the TGI [8] was > 100 µM and the TGI [9] was 33.1 µM.

`C[C@]12CC[C@H](O)CC1=CC[C@@H]1[C@@H]2CC[C@]2(C)C(=O)CC[C@@H]12` was tested, and the TGI [1] was > 100 µM, the TGI [2] was > 100 µM and the TGI [3] was > 100 µM. For the same compound, the TGI [10] was > 100 µM, the TGI [4] was > 100 µM and the TGI [5] was > 100 µM. The TGI [9] was > 100 µM and the TGI [6] was > 100 µM.

With `NC1=NS(=O)(=O)Nc2nc(-c3cccs3)[nH]c21` the TGI [1] was > 100 µM, the TGI [2] was > 100 µM and the TGI [3] was > 100 µM. For the same compound, the TGI [10] was > 100 µM, the TGI [4] was > 100 µM and the TGI [5] was > 100 µM. The TGI [7] was > 100 µM, the TGI [8] was > 100 µM and the TGI [6] was > 100 µM.

`Cc1onc(-c2c(F)cccc2Cl)c1C(=O)N[C@@H]1C(=O)N2[C@@H]1SC(C)(C)[C@@H]2C(=O)O` was tested, and the TGI [2] was > 100 µM, the TGI [3] was > 100 µM and the TGI [10] was > 100 µM. The TGI [4] was > 100 µM, the TGI [8] was > 100 µM and the TGI [9] was > 100 µM.

In the case of `FC(F)(F)C1=NC(=NNc2nnc(-c3ccccc3)c(-c3ccccc3)n2)N=C(C(F)(F)F)C1`, the TGI [1] is reported as > 100 µM, the TGI [2] is reported as > 100 µM and the TGI [10] is reported as > 100 µM. The TGI [5] was > 100 µM, the TGI [7] was 37.1 µM and the TGI [8] was > 100 µM. For the same compound, the TGI [6] was > 88.9 µM.

For `COc1ccc(-n2cc(-c3ccc(OC)c(OC)c3)nc2SCc2ccccc2)cc1Cl`, the GI50 [1] was 34.7 µM, the TGI [1] was > 100 µM and the GI50 [2] was 27.4 µM. The TGI [2] was > 100 µM, the GI50 [3] was 26 µM and the TGI [3] was > 100 µM. For the same compound, the GI50 [10] was 24.5 µM, the TGI [10] was 79.5 µM and the GI50 [4] was 29.5 µM. For the same compound, the TGI [4] was > 100 µM, the GI50 [5] was 21.2 µM and the TGI [5] was > 100 µM. The GI50 [7] was 12.9 µM, the TGI [7] was 37.7 µM and the GI50 [8] was 22.3 µM. For the same compound, the TGI [8] was > 100 µM, the GI50 [9] was 13.8 µM and the TGI [9] was > 100 µM. For the same compound, the GI50 [6] was 19.3 µM and the TGI [6] was 45.5 µM.

Compound `O=c1cc(-c2nc3ccccc3[nH]2)[nH]c2nc(-c3nc4ccccc4[nH]3)cc(-c3ccc(Cl)cc3)c12` has a TGI [1] of 31.8 µM, a TGI [3] of 62.5 µM and a TGI [10] of 31.8 µM. For the same compound, the TGI [4] was 49 µM, the TGI [5] was 96.4 µM and the TGI [7] was 66.3 µM. For the same compound, the TGI [9] was > 100 µM.

`CO[C@]12C[C@H](CNC(=O)c3cc(Br)c(Br)[nH]3)O[C@H]1NC(=O)N2` was tested, and the TGI [1] was > 100 µM, the TGI [2] was > 100 µM and the TGI [3] was > 100 µM. The TGI [10] was > 100 µM, the TGI [4] was > 100 µM and the TGI [5] was > 100 µM. The TGI [7] was > 100 µM, the TGI [8] was > 100 µM and the TGI [9] was > 100 µM. For the same compound, the TGI [6] was > 100 µM.

For `Cc1ccc(S(=O)(=O)NCCSS(=O)(=O)c2ccc(C)cc2)cc1`, the TGI [1] was 53.5 µM, the TGI [2] was 77.2 µM and the TGI [4] was > 100 µM. For the same compound, the TGI [5] was > 100 µM, the TGI [8] was 67.2 µM and the TGI [9] was 94.8 µM. The TGI [6] was > 100 µM.

For `OC1(c2ccc3ccccc3c2)c2ccc3ccccc3c2C2=NCCN21` (stereo not given), the TGI [1] was > 100 µM, the TGI [2] was 46.9 µM and the TGI [3] was > 100 µM. The TGI [10] was > 100 µM, the TGI [4] was > 100 µM and the TGI [5] was > 100 µM. For the same compound, the TGI [7] was > 100 µM, the TGI [8] was > 100 µM and the TGI [9] was > 100 µM. The TGI [6] was > 100 µM.

With `CC[N+](CC)(CC)/C(=N/S(=O)(=O)c1cc(C)c(Cl)cc1S)[N-]S(=O)(=O)c1ccc(Cl)cc1` the TGI [1] was > 100 µM, the TGI [3] was > 100 µM and the TGI [10] was > 100 µM. The TGI [4] was > 100 µM, the TGI [5] was > 100 µM and the TGI [7] was > 100 µM. For the same compound, the TGI [8] was > 100 µM, the TGI [9] was > 100 µM and the TGI [6] was > 100 µM.

With `CCCC(=O)OCC(O)CO` (stereo not given) the TGI [1] was > 5000 µM, the TGI [2] was > 5000 µM and the TGI [3] was > 5000 µM. For the same compound, the TGI [10] was > 5000 µM, the TGI [4] was > 5000 µM and the TGI [5] was > 5000 µM. The TGI [7] was > 5000 µM.
